# Data from patent US20040266834A1, “Thiazolidinediones alone or in cabination with other therapeutic agents for cancer therapy” (priority 1999, published 2004).
# Where a name gives a salt, the structure may show the parent alone. Starred links: 1 amine or outer side, 2 acyl side, 3 side chain; linkers in the order of their positions; H or OH if unused. Positions of bridges follow the written chain, without caps; N, C: chain ends. Non-standard residues stand in square brackets, D forms with d. Residues, ends and D or L forms follow the SMILES beside them. Chains are numbered I, II in the order given. Actinocin(9to1) = Cc1c2oc3c(C)ccc(C(=O)[*:1])c3nc-2c(C(=O)[*:2])c(N)c1=O; NMeV = CN[C@H](C(=O)O)C(C)C; Sar = CNCC(=O)O
# Columns and labels:
# [1] = test system: multiple myeloma; settings: oral administration; cited from earlier work
# [2] = cited from earlier work
# [3] = test system: human ovarian 2774 cells; test: DNA content, ovarian 2774 cells, combinatorial therapy; format: cell-based; settings: taxol 1 ng/ml, cis-platin 100 ng/ml, troglitazone 5 or 10 μM, alone or combined
# Protocol: (§1) […]. At the end of 3 days DNA content was determined as a measure of cell proliferation.
# (§2) Concentration of cellular DNA was determined using Hoechst dye H 33258 and a Hoefer DyNA Quant fluorometer according to manufacturer's instructions. Results are expressed as μg DNA/well. All experiments were done in triplicate.
# [4] = test system: three renal cell carcinoma cell lines; test: DNA content, three renal cell carcinoma cell lines taken together; format: cell-based, human; settings: 10 μM; UMCR 3, 6 and 7
# Protocol: Human renal tumor cells (URMC 3, 6, 7) were cultured in 5% fetal bovine serum, penicillin/streptomycin, and alpha-MEM media. […] At the end of 3 days DNA content was determined as a measure of cell proliferation.
# as §2
# [5] = test system: CaOV3 cells; test: DNA content, ovarian tumor cells CaOV3; format: cell-based, human; settings: 3 days; for inhibition at 10 µM: Homo sapiens, Caov-3, 72 h, read-out: inhibition of cell proliferation
# Protocol: as §1, §2
# [6] = test system: 222 cells; test: DNA content, ovarian tumor cells 222; format: cell-based; settings: Homo sapiens, 72 h, 3 days, read-out: inhibition of growth
# Protocol: as §1, §2
# [7] = test system: PA-1 cells; test: DNA content, ovarian tumor cells PA-1; format: cell-based; settings: Homo sapiens, 72 h, 3 days, read-out: inhibition of cell proliferation
# Protocol: as §1, §2
# [8] = test system: HCT 116 cells; settings: cited from earlier work
# [9] = test system: HCT 15 cells; settings: cited from earlier work
# [10] = test system: Saos-2 cells; test: Lactate dehydrogenase (LDH) activity in media, Saos-2; format: cell-based, human
# Protocol: Saos-2 cells were purchased from ATCC (Rockville, Md.) and cultured in 10% fetal bovine serum, penicillin/streptomycin, and DMEM media. Cells exposed to a single treatment of troglitazone, 5-fluorouracil, and/or cis-platinum for 3 days. At the end of 3 days media was tested for lactate dehydrogenase (LDH) activity as a measure of cell toxicity and DNA content was determined as a measure of cell proliferation. The phrase “cell proliferation” is used herein interchangeably with “cell growth.”
# Media from treated cells was assayed for LDH activity with a colorimetric dye-oxidation method which has been previously described (11). Briefly, the assay mix including lactate, NAD, INT dye and diaphorase in PBS was added to media from the cells and incubated 30 minutes. Red color development is indicative of INT […] to formazan product, giving an indication of LDH activity when measured at 490 nm.
# [11] = test system: PPARγ in UMCR 3 cells; test: PPRE/luciferase reporter, UMCR 3; format: cell-based, human; settings: 10 μM, 24-hour treatment
# Protocol: A tandem PPRE luciferase expression plasmid was constructed using three copies of a consensus PPRE 5′ to the luciferase gene. Cells were transfected using the calcium phosphate method of transfection. 10 μg of PPRE/luciferase reporter plasmid was transfected into URMC 3, 6, and 7 cells. A CMV-CAT reporter plasmid was cotransfected (0.5 μg) with PPRE/luciferase as an internal control for transfection efficiency. CAT activity was measured by ELISA as described by Boehringer-Mannheim. […] Cells lysates were prepared and luciferase activity was determined using an AutoLumat luminometer.
# [12] = test system: p21 mRNA; test: Ribonuclease protection assay, cell cycle regulator mRNA; format: cell-based, human; settings: single treatment 1 μM, 24 hr, normalized to GAPDH
# Protocol: To determine whether troglitazone effected any of the cell cycle regulator genes, ribonuclease protection assay (RPA) was performed measuring mRNAs encoding p130, Rb, p107, p53, p57, p27, p21, p19, p18, p16, p14/15 and the housekeeping gene products L32 and GAPDH. […] Cells were lysed and total RNA was isolated. […] Ribonuclease protection assay was performed using kit according to manufacturer instructions (PharMingen, San Diego, Calif.). Conditions that were optimized included using 20 μg of total RNA from Hs578T cells and a 1:200 dilution of RNAse A/T (200 units/ml RNase A and 10,000 units/ml RNase T). […] Results are reported as the ratio of […] signal. All experiments were done in triplicate from different RNA preparations.
# [13] = test system: Saos-2 cells; test: [3H]thymidine incorporation, Saos-2; format: cell-based, human
# Protocol: Saos-2 cells (10,000/well) were seeded into wells of 12-well plates and grown for 4 days until near confluent. […]. [Methyl-^3H]thymidine (1 μCi) and thymidine (3 μM) were then added to each well, and the incubation was continued for another 4 h. Cells were rinsed with ice-cold PBS twice and were treated with ice-cold 10% TCA. The cells were then rinsed twice with PBS and solubilized in 400 μl of solution composed of 0.03% SDS in 0.3 N NaOH. The extracts were neutralized with HCl, and radioactivity incorporated into the cells was quantified by liquid scintillation spectrometry.
# [14] = test system: Saos-2 cells; test: DNA content (Hoechst H 33258) as measure of cell proliferation, Saos-2; format: cell-based, human
# Protocol: Cells exposed to a single treatment of troglitazone, 5-fluorouracil, and/or cis-platinum for 3 days. […] The phrase “cell proliferation” is used herein interchangeably with “cell growth.” Concentration of cellular DNA was determined using Hoechst dye H 33258 and a Hoefer DyNA Quant fluorometer according to manufacturer's instructions. Results are expressed as μg DNA/well. All experiments were done in triplicate.
# [15] = humans; cited from earlier work
compound,measurement,setting,value
"N[C@@H](Cc1ccc(N(CCCl)CCCl)cc1)C(=O)O [Melphalan, 4-[bis(2-chloroethyl)amino]-L-phenylalanine]",patients showing a favorable response,[1],one third to one half
N.N.[Cl][Pt][Cl] [cis-platin],oral absorption,[2]; in vivo,not absorbed orally
same,inhibition of cell proliferation,[3],55%
CC[C@]1(O)C[C@H]2CN(CCc3c([nH]c4ccccc34)[C@@](C(=O)OC)(c3cc4c(cc3OC)N(C=O)[C@H]3[C@@](O)(C(=O)OC)[C@H](OC(C)=O)[C@]5(CC)C=CCN6CC[C@]43[C@@H]65)C2)C1 [vincristine],oral absorption,[2]; in vivo,Unpredictable absorption
CC1=C(/C=C/C(C)=C\C=C\C(C)=C\C(=O)O)C(C)(C)CCC1 [9-cis-retinoic acid],growth inhibitory activity (FIGS. 13-15),[4],little on no growth inhibitory activity
"COc1cccc2c1C(=O)c1c(O)c3c(c(O)c1C2=O)C[C@@](O)(C(=O)CO)C[C@@H]3O[C@H]1C[C@H](N)[C@H](O)[C@H](C)O1 [Doxorubicin, 5,12-Naphthacenedione, (8s-cis)-10-[(3-amino-2,3,6-trideoxy-a-L-lyxo-hexopyranosyl)oxy]-7,8,9,10-tetrahydro-6,8,11-trihydroxy-8-(hydroxyacetyl)-1-methoxy-hydrochloride]",oral absorption,[2]; in vivo,absorbed poorly
same,secreted into the bile,[2]; in vivo,Forty to 50
CCc1ccc(CCOc2ccc(CC3SC(=O)NC3=O)cc2)nc1 (stereo not shown) [pioglitazone],inhibition at 10 µM,[5],60%
same,inhibition at 10 µM,[6],36%
same,inhibition at 10 µM,[7],60 to 70%
CC(=O)O[C@H]1C(=O)[C@@]2(C)[C@H]([C@H](OC(=O)c3ccccc3)[C@]3(O)C[C@H](OC(=O)[C@H](O)[C@@H](NC(=O)c4ccccc4)c4ccccc4)C(C)=C1C3(C)C)[C@]1(OC(C)=O)CO[C@@H]1C[C@@H]2O [taxol],inhibition at 0.001 µg/mL,"[3]; Homo sapiens, read-out: inhibition of cell proliferation",28%
CN(CCOc1ccc(CC2SC(=O)NC2=O)cc1)c1ccccn1 (stereo not shown) [rosiglitazone],inhibition at 10 µM,[5],60%
same,inhibition at 10 µM,[6],4%
same,inhibition at 10 µM,[7],60 to 70%
CC[C@]1(O)C[C@@H]2CN(CCc3c([nH]c4ccccc34)[C@@](C(=O)OC)(c3cc4c(cc3OC)N(C)[C@H]3[C@@](O)(C(=O)OC)[C@H](OC(C)=O)[C@]5(CC)C=CCN6CC[C@]43[C@@H]65)C2)C1 [vinblastine],oral absorption,[2]; in vivo,Unpredictable absorption
vitamin E,IC50,[8],3 mM
same,IC50,[9],0.75 mM
same,cell killing (microscopic examination and LDH levels in the media),[10]; 100 μM,cells are being killed
"COc1cccc2c1C(=O)c1c(O)c3c(c(O)c1C2=O)C[C@@](O)(C(C)=O)C[C@@H]3O[C@H]1C[C@H](N)[C@H](O)[C@H](C)O1 [Daunorubicin, 5,12-Naphthacenedione, (8S-cis)-8-acetyl-10-[(3-amino-2,3,6-trideoxy-a-L-lyxo-hexanopyranosyl)oxy]-7,8,9,10-tetrahydro-6,8,11-trihydroxy-10-methoxy-, hydrochloride]",oral absorption,[2]; in vivo,poor
"O=NN(CCCl)C(=O)NC1CCCCC1 [Lomustine, 1-(2-chloro-ethyl)-3-cyclohexyl-1 nitrosourea]",serum half-life of the metabolites,[2]; in vivo,16 to 48 h
same,radioactivity excreted as degradation products within 24 hours,"[2]; oral, 30 mg/m^2 to 100 mg/m^2, radioactive drug",about half
CC1=C(/C=C/C(C)=C/C=C/C(C)=C/C(=O)O)C(C)(C)CCC1 [all trans retinoic acids],growth inhibitory activity (FIGS. 13-15),[4],little on no growth inhibitory activity
"Cc1c(C)c2c(c(C)c1O)CCC(C)(COc1ccc(CC3SC(=O)NC3=O)cc1)O2 (racemic) [troglitazone, ±5-[[4-[(3,4-dihydro-6-hydroxy-2,5,7,8-tetramethyl-2H-1-benzopyran-2-yl)methoxy]phenyl]methyl]-2,4-thiazolidinedione]",stimulation of PPRE/luciferase transcription,[11],3 fold
same,increase in p21 mRNA levels,[12],2.6 fold
same,inhibition of cell proliferation,[5]; 10 μM,no inhibitory activity
same,decrease in 3H-thymidine incorporation,"[13]; 10 μg/ml, 24 h exposure",~45%
same,inhibition at 5 µg/mL,"[13]; Homo sapiens, SAOS-2, read-out: inhibition of 3H-uridine uptake, 5 μg/ml, 18 hours",16%
same,inhibition at 10 µg/mL,"[13]; Homo sapiens, SAOS-2, read-out: inhibition of 3H-uridine uptake, 10 μg/ml, 18 hours",43%
same,inhibition at 10 µM,[6],50%
same,LDH levels in the media as compared to controls,"[10]; any concentration used, 3 days of treatment",not altered
same,lethality to Saos-2 cells (LDH activity),"[10]; up to 30 μg/ml, 3 days",not lethal
same,inhibition at 10 µM,[7],60 to 70%
same,IC50,"[14]; Homo sapiens, 72 h, Saos-2 cells, 3 days after a single treatment, read-out: IC50 (DNA content per well)",1 to 10 µg/mL
same,"ability to inhibit cell proliferation in combinatorial therapy (5-FU, doxorubicin)",[14]; compared with the other thiazolidinediones,superior to pioglitazone and BRL49653
CO[C@@]12[C@H](COC(N)=O)C3=C(C(=O)C(C)=C(N)C3=O)N1C[C@@H]1N[C@@H]12 [mitomycin],dose recovered/excreted in the urine,[15],Approximately 10%
O=C(O)CCC(=O)O [succinic acid],effect upon cell proliferation,[14]; 100 μM,no effect
"O.O=P1(N(CCCl)CCCl)NCCCO1 (stereo not shown) [Cyclophosphamide, 2H-1,3,2-Oxazaphosphorin-2-amine, N,N-bis(2-chloroethyl)tetrahydro-, 2-oxide, monohydrate]",stability in the gastrointestinal tract,[2]; in vivo,stable
"O=C(O)CCCc1ccc(N(CCCl)CCCl)cc1 [Chlorambucil, 4-[bis(2-chlorethyl)amino] benzenebutanoic acid]",oral absorption,[2]; in vivo,rapidly and completely absorbed
Cc1c(C)c2c(c(C)c1OC(=O)CCC(=O)O)CC[C@@](C)(CCC[C@H](C)CCC[C@H](C)CCCC(C)C)O2 [Vitamin E succinate],"inhibition of cell proliferation, compounds compared (FIG. 7)",[14]; single treatment,somewhat less effective than troglitazone
"Cc1c2oc3c(C)ccc(C(=O)N[C@@H]4C(=O)N[C@H](C(C)C)C(=O)N5CCC[C@H]5C(=O)N(C)CC(=O)N(C)[C@@H](C(C)C)C(=O)O[C@@H]4C)c3nc-2c(C(=O)N[C@@H]2C(=O)N[C@H](C(C)C)C(=O)N3CCC[C@H]3C(=O)N(C)CC(=O)N(C)[C@@H](C(C)C)C(=O)O[C@@H]2C)c(N)c1=O [Actinomycin D] (I: T[dV]P[Sar][NMeV] / II: T[dV]P[Sar][NMeV]; ester I:1-I:C, II:1-II:C; linker I:N-II:N via Actinocin(9to1))",passage of the blood-brain barrier,[2]; in vivo,does not pass
